Laboratory results: patent US4336257A, “Novel 2-pyridylbenzimidazole compounds” (Merck & Co., Inc., priority 1980, dated 1982)
Read-outs that look alike come from different tables or passages of the source.

Columns and labels:
xanthine oxidase [1] = molecular target: T1, xanthine oxidase (Bos taurus, UniProt P80457); assay: in vitro xanthine oxidase (X.O.) inhibition; type: biochemical
Method: (§1) The xanthine oxidase activity of representative compounds was determined using an in vitro test--the antihypertensive activity was determined by administration of said compounds to a spontaneously hypertensive (SH) or renal hypertensive (RH) rat. The X.O. inhibition is expressed as % inhibition of the enzyme at a present compound concentration of 2×10^-5 M. | .circle.* using in vitro test as described in J. Med. Chem. 20,

[2] = tested on: renal hypertensive (RH) rat; assay: antihypertensive activity in renal hypertensive (RH) rat; type: in vivo; conditions: RH rat (footnote 2)
Method: as §1, with “M.” for “M. | .circle.* using in vitro test as described in J. Med. Chem. 20,”

[3] = tested on: spontaneously hypertensive (SH) rat; assay: antihypertensive activity in spontaneously hypertensive (SH) rat; type: in vivo; conditions: SH rat (footnote 1)
Method: as §1, with “M.” for “M. | .circle.* using in vitro test as described in J. Med. Chem. 20,”

xanthine oxidase [4] = molecular target: T1, xanthine oxidase; assay: in vitro xanthine oxidase (X.O.) inhibition; type: biochemical; conditions: Table 2; amount 1.5 × 10^-5 m; read-out: X.O.I.
[5] = tested on: spontaneously hypertensive (SH) or renal hypertensive (RH) rat; assay: antihypertensive activity in spontaneously hypertensive (SH) or renal hypertensive (RH) rat, model not specified; type: in vivo; conditions: model not marked
Method: as §1, with “M.” for “M. | .circle.* using in vitro test as described in J. Med. Chem. 20,”

[6] = Table 1, compound concentration 2×10^-5 M, read-out: % X.O. Inhibition
[7] = Table 2, amount 2 × 10^-5 M, read-out: X.O.I.

T1 sequence (P80457 whole entry): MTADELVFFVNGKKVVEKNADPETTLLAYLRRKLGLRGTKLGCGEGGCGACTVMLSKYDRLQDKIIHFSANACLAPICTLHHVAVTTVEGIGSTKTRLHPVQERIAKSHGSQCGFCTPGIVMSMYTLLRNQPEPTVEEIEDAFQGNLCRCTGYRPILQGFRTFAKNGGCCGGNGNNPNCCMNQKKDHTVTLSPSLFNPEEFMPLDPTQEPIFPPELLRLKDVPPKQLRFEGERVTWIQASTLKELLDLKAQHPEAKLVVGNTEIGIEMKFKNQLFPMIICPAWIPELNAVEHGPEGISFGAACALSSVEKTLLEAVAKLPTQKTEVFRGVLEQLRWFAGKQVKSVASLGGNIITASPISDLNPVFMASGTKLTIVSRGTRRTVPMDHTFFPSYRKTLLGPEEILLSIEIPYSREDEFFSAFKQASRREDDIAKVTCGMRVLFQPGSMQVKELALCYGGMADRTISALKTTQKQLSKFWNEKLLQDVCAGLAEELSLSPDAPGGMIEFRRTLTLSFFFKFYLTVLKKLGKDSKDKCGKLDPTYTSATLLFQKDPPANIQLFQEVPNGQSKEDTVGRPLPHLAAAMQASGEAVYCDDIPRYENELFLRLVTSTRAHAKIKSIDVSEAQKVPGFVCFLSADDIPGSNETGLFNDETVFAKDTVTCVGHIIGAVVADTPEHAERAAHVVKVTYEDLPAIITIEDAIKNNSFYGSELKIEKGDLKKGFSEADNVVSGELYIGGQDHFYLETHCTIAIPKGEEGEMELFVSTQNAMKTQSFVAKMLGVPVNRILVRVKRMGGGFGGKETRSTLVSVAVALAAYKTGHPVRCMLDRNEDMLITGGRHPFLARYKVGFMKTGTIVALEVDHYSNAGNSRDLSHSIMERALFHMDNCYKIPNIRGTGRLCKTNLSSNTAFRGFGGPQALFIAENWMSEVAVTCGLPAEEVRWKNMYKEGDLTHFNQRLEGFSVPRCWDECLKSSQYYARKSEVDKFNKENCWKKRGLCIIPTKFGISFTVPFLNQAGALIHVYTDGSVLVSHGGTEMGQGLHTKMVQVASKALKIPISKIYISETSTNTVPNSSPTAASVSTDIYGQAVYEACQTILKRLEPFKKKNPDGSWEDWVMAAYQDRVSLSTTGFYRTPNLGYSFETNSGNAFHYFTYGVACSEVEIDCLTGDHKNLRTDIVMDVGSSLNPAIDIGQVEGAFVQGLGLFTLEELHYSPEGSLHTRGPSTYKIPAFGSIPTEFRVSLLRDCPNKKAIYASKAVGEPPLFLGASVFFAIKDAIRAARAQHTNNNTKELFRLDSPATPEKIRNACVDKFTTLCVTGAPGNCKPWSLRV

inhibition at 20 µM (xanthine oxidase [1]; [6])	SMILES	A.H. Activity [3]	further results
11%	Clc1ccc2[nH]c(-c3ccncc3)nc2c1 [drawing 6]	–	A.H. Activity [2]: yes
5%	c1cncc(-c2nc3cccnc3[nH]2)c1	yes	–
–	Clc1ccc2[nH]c(-c3ccncc3)nc2c1 [drawing 13]	–	inhibition at 20 µM (xanthine oxidase [1]; [7]): 11%
0%	Cc1cnc(-c2cccnc2)[nH]1	yes	–
–	Clc1cc2nc(-c3ccncc3)[nH]c2cc1Cl [drawing 14]	–	inhibition at 15 µM (xanthine oxidase [4]): 50%
56%	Clc1cc2nc(-c3ccncc3)[nH]c2cc1Cl [drawing 7]	–	A.H. Activity [5]: no
8%	c1cnc2[nH]c(-c3ccncc3)nc2c1	yes	–
62%	c1cc(-c2nc3cnccc3[nH]2)ccn1	yes	–
4%	Cc1cnc(-c2ccncc2)[nH]1	yes	–
–	Clc1ccc2[nH]c(-c3cccnc3)nc2c1	–	inhibition at 20 µM (xanthine oxidase [1]; [7]): 0%
23%	c1cncc(-c2nc3cnccc3[nH]2)c1	–	A.H. Activity [5]: no
